Experimental data: ChEMBL document CHEMBL1201862, “PubChem BioAssay data set” (2004)
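Step 1: Grow cells in 96-well plates. Step 2: Expose to compound for 48 hours at 5 concentrations. Step 3: Interpolate endpoints linearly; if unreached, use highest concentration. Here, GI50 denotes the concentration required for 50% inhibition of growth.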 The source made the active and inactive calls. Cut-off read from the data, not from the text of the source: active = GI50 up to about 1.1 µM and inactive = higher.

Legend:
Test in all cases: growth of human tumour cells (NCI), 48 h
786-0 = test system: 786-0
A549 = test system: A549
ACHN = test system: ACHN
BT-549 = test system: BT-549
CAKI-1 = test system: CAKI-1
CCRF-CEM = test system: CCRF-CEM
COLO 205 = test system: COLO 205
DU-145 = test system: DU-145
HCC 2998 = test system: HCC 2998
HCT-116 = test system: HCT-116
HCT-15 = test system: HCT-15
HL-60 = test system: HL-60
HOP-62 = test system: HOP-62
HOP-92 = test system: HOP-92
HT-29 = test system: HT-29
Hs-578T = test system: Hs-578T
IGROV-1 = test system: IGROV-1
KM12 = test system: KM12
LOX IMVI = test system: LOX IMVI
M14 = test system: M14
MCF7 = test system: MCF7
MDA-MB-231 = test system: MDA-MB-231
MDA-MB-435 = test system: MDA-MB-435
MDA-N = test system: MDA-N
MOLT-4 = test system: MOLT-4
Malme-3M = test system: Malme-3M
NCI-H226 = test system: NCI-H226
NCI-H23 = test system: NCI-H23
NCI-H460 = test system: NCI-H460
NCI-H522 = test system: NCI-H522
NCI/ADR-RES = test system: NCI/ADR-RES
OVCAR-3 = test system: OVCAR-3
OVCAR-4 = test system: OVCAR-4
OVCAR-5 = test system: OVCAR-5
OVCAR-8 = test system: OVCAR-8
PC-3 = test system: PC-3
RPMI-8226 = test system: RPMI-8226
SF-268 = test system: SF-268
SF-295 = test system: SF-295
SF-539 = test system: SF-539
SK-MEL-28 = test system: SK-MEL-28
SK-MEL-2 = test system: SK-MEL-2
SK-MEL-5 = test system: SK-MEL-5
SK-OV-3 = test system: SK-OV-3
SN12C = test system: SN12C
SNB-19 = test system: SNB-19
SNB-75 = test system: SNB-75
SR = test system: SR
SW-620 = test system: SW-620
T47D = test system: T47D
TK-10 = test system: TK-10
U-251 = test system: U-251
UACC-257 = test system: UACC-257
UACC-62 = test system: UACC-62
UO-31 = test system: UO-31

## Cc1ccc(SCC(CF)OC(C)n2cnc3c(O)nc(N)nc32)cc1 (stereo not given)
786-0
  GI50: > 100 µM (inactive)
A549
  GI50: > 100 µM (inactive)
ACHN
  GI50: 55.6 µM (inactive)
BT-549
  GI50: 19.8 µM (inactive)
CAKI-1
  GI50: > 100 µM (inactive)
CCRF-CEM
  GI50: > 100 µM (inactive)
COLO 205
  GI50: > 100 µM (inactive)
DU-145
  GI50: > 100 µM (inactive)
HCC 2998
  GI50: > 100 µM (inactive)
HCT-116
  GI50: > 100 µM (inactive)
HCT-15
  GI50: > 100 µM
HL-60
  GI50: 41.1 µM (inactive)
HOP-62
  GI50: > 100 µM (inactive)
HOP-92
  GI50: > 100 µM (inactive)
HT-29
  GI50: > 100 µM (inactive)
Hs-578T
  GI50: > 100 µM (inactive)
IGROV-1
  GI50: > 100 µM (inactive)
KM12
  GI50: > 100 µM (inactive)
LOX IMVI
  GI50: > 100 µM (inactive)
M14
  GI50: > 100 µM (inactive)
MCF7
  GI50: 34.9 µM (inactive)
MDA-MB-231
  GI50: > 100 µM (inactive)
MDA-MB-435
  GI50: 63.8 µM (inactive)
MDA-N
  GI50: > 100 µM (inactive)
MOLT-4
  GI50: 50.5 µM (inactive)
Malme-3M
  GI50: > 100 µM (inactive)
NCI-H226
  GI50: > 100 µM (inactive)
NCI-H23
  GI50: 75.5 µM (inactive)
NCI-H460
  GI50: > 100 µM (inactive)
NCI-H522
  GI50: > 100 µM (inactive)
NCI/ADR-RES
  GI50: > 100 µM (inactive)
OVCAR-3
  GI50: 88.7 µM (inactive)
OVCAR-4
  GI50: > 100 µM (inactive)
OVCAR-5
  GI50: > 100 µM (inactive)
OVCAR-8
  GI50: > 100 µM (inactive)
PC-3
  GI50: > 100 µM (inactive)
RPMI-8226
  GI50: > 100 µM (inactive)
SF-268
  GI50: > 100 µM (inactive)
SF-295
  GI50: > 100 µM (inactive)
SF-539
  GI50: > 100 µM (inactive)
SK-MEL-28
  GI50: > 100 µM (inactive)
SK-MEL-2
  GI50: > 100 µM (inactive)
SK-MEL-5
  GI50: 18.1 µM (inactive)
SK-OV-3
  GI50: > 100 µM (inactive)
SN12C
  GI50: > 100 µM (inactive)
SNB-19
  GI50: > 100 µM (inactive)
SNB-75
  GI50: > 100 µM (inactive)
SR
  GI50: 98.4 µM (inactive)
SW-620
  GI50: > 100 µM (inactive)
T47D
  GI50: 49.1 µM (inactive)
TK-10
  GI50: > 100 µM (inactive)
U-251
  GI50: > 100 µM (inactive)
UACC-257
  GI50: 48.4 µM (inactive)
UACC-62
  GI50: > 100 µM (inactive)
UO-31
  GI50: > 100 µM (inactive)
